Patent US5264429A, “2-spirocyclopropyl cephalosporin sulfone derivatives” (SynPhar Laboratories, Inc., priority 1991, dated 1993)

Legend:
[1] = target: T1, human leukocyte elastase (HLE) (Homo sapiens, UniProt P08246); assay: Enzyme Assay for Inhibition of HLE; format: biochemical; details: HLE 10 nM, pH 7.6, 10 minute preincubation, 30° C.
T1 construct: from tissue; host or cells: human white blood cells
T1 sequence (P08246 30-247 limits assumed): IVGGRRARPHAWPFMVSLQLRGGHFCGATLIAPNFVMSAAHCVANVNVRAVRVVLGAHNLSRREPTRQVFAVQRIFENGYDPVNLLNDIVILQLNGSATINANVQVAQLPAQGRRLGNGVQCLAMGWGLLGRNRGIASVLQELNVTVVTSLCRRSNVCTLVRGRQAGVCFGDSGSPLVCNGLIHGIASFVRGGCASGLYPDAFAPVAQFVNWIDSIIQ
Description: Enzyme Assay for Inhibition of HLE:
Enzyme: Purified elastase from human white blood cells.
Substrate: MeO-succinyl-L-alanyl-L-alanyl-L-prolyl-L-valine-p-nitro-anilide(NA).
Reaction Mixture: 10 mM phosphate buffer (pH 7.6), 500 mM NaCl, 10% dimethylsulfoxide (DMSO), 0.35 mM substrate.
The enzyme activity was determined by monitoring the increase in absorbance at 410 nm caused by the hydrolysis of chromogenic substrates. Inhibition of enzyme by the compounds described were determined after a 10 minute preincubation with the enzyme in reaction mixture minus substrate. Reaction was initiated by the addition of substrate. The concentration of human leukocyte elastase used for assay was at 10 nM.
HLE, CTG, PPE and CTD were tested at 30° C. and the others were […]

trypsin = target: T2, trypsin (Bos taurus, UniProt P00760); assay: Inhibition of trypsin (TRY); format: biochemical, bovine; details: trypsin, pH 8.8, 10 minute preincubation, 22° C.; read-out: IC50 TRY (converted)
T2 construct: from tissue; host or cells: bovine pancreas
T2 sequence (P00760 24-246): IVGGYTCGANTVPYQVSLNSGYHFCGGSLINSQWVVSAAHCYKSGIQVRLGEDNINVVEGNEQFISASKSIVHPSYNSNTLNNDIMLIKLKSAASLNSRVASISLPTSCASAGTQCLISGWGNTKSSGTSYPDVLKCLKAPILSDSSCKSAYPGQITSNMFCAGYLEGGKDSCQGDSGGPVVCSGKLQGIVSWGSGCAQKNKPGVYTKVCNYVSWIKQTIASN
Description: Enzyme: Purified trypsin from bovine pancreas
Substrate: Bz-L-arginine-p-NA
Reaction mixture: 50 mM Tricine[N-Tris(hydroxymethyl)methylglycine]-NaOH buffer (pH 8.8) 150 mM NaCl, 10% DMSO 1.0 mM Substrate.
Inhibition of enzymes by the compounds described were determined after a 10 minute preincubation with enzymes in reaction mixtures minus substrate. Reactions were initiated by the addition of substrates. […] All other proteases were assayed at the concentrations that produced approximately 0.1 O.D. change per minute at 410 nm under the standard conditions.

cathepsin G = target: T3, cathepsin G (Homo sapiens, UniProt P08311); assay: Inhibition of cathepsin G (CTG); format: biochemical; details: cathepsin G 50 nM, pH 7.5, 10 minute preincubation, 30° C.; read-out: IC50 CTG (converted)
T3 construct: from tissue; host or cells: human white blood cells
T3 sequence (P08311 21-244 limits assumed): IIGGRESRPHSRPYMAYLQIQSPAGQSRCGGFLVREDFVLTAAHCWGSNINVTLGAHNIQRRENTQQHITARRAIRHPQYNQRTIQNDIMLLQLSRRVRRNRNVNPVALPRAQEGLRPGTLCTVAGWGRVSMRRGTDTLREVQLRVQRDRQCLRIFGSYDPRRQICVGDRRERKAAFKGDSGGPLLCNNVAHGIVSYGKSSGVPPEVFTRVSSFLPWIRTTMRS
Description: Enzyme: Purified Cathepsin G from human white blood cells
Substrate: N-succinyl-L-alanyl-L-alanyl-L-phenylalanyl-L-phenylalanine -p-NA.
Reaction mixture: 10 mM Phosphate buffer (pH 7.5), 500 mM NaCl, 10% DMSO, 2.0 mM Substrate.

cathepsin D = target: T4, cathepsin D (Bos taurus, UniProt P80209); assay: Inhibition of cathepsin D (CTD); format: biochemical, bovine
T4 construct: from tissue; host or cells: bovine spleen
T4 sequence (P80209 45-390): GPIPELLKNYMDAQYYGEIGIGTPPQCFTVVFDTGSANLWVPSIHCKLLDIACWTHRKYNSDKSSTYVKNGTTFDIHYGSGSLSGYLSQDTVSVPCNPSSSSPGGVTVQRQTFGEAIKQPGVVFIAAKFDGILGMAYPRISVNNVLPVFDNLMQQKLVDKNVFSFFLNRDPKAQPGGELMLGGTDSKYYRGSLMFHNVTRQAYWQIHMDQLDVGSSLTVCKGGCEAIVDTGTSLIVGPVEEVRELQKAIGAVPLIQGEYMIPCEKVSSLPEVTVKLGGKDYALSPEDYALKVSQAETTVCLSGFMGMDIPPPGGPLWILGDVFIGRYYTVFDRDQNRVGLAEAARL
Description: Except for Cathepsin D, the enzyme activities were determined by monitoring the increase in absorbance at 410 nm caused by the hydrolysis of chromogenic substrates. The activity of Cathepsin D was determined by monitoring the absorbance of 5% trichloroacetic acid-soluble material at 280 nm. Inhibition of enzymes by the compounds described were determined after a 10 minute preincubation with enzymes in reaction mixtures minus substrate. Reactions were initiated by the addition of substrates. […] Cathepsin D was used at the concentration that produced approximately 0.15 O.D. increase per 20 min at 280 nm under the standard conditions. All other proteases were assayed at the concentrations that produced approximately 0.1 O.D. change per minute at 410 nm under the standard conditions.

thrombin = target: T5, thrombin (Homo sapiens, UniProt P00734); assay: Inhibition of thrombin (THR); format: biochemical; details: pH 8.6, 10 minute preincubation, 22° C.
T5 construct: from tissue; host or cells: human plasma
Description: (§1) HLE, CTG, PPE and CTD were tested at 30° C. and the others were
(§2) TRY, trypsin; THR, thrombin; PTH, plasmin; CTC, cathepsin C; ATM,
Enzyme: Purified thrombin from human plasma
Substrate: Tosyl-glycyl-L-prolyl-L-arginine-p-NA acetate
Reaction mixture: 50 mM Tricine-NaOH buffer (pH 8.6), 500 mM NaCl, 0.1% Polyethyleneglycol 8000, 10% DMSO, 0.5 mM Substrate.
(§3) Except for Cathepsin D, the enzyme activities were determined by monitoring the increase in absorbance at 410 nm caused by the hydrolysis of chromogenic substrates. The activity of Cathepsin D was determined by monitoring the absorbance of 5% trichloroacetic acid-soluble material at 280 nm.
(§4) Inhibition of enzymes by the compounds described were determined after a 10 minute preincubation with enzymes in reaction mixtures minus substrate. Reactions were initiated by the addition of substrates. The concentration used for assays were porcine pancreatic elastase at 240 nM and human Cathepsin G at 50 nM. Cathepsin D was used at the concentration that produced approximately 0.15 O.D. increase per 20 min at 280 nm under the standard conditions. All other proteases were assayed at the concentrations that produced approximately 0.1 O.D. change per minute at 410 nm under the standard conditions.

aminopeptidase M = target: T6, aminopeptidase M (Sus scrofa, UniProt P15145); assay: Inhibition of aminopeptidase M (ATM); format: biochemical, porcine; details: aminopeptidase M, pH 7.5, 10 minute preincubation, 22° C.; read-out: IC50 ATM
T6 construct: from tissue; host or cells: porcine kidney
T6 sequence (P15145 1-963): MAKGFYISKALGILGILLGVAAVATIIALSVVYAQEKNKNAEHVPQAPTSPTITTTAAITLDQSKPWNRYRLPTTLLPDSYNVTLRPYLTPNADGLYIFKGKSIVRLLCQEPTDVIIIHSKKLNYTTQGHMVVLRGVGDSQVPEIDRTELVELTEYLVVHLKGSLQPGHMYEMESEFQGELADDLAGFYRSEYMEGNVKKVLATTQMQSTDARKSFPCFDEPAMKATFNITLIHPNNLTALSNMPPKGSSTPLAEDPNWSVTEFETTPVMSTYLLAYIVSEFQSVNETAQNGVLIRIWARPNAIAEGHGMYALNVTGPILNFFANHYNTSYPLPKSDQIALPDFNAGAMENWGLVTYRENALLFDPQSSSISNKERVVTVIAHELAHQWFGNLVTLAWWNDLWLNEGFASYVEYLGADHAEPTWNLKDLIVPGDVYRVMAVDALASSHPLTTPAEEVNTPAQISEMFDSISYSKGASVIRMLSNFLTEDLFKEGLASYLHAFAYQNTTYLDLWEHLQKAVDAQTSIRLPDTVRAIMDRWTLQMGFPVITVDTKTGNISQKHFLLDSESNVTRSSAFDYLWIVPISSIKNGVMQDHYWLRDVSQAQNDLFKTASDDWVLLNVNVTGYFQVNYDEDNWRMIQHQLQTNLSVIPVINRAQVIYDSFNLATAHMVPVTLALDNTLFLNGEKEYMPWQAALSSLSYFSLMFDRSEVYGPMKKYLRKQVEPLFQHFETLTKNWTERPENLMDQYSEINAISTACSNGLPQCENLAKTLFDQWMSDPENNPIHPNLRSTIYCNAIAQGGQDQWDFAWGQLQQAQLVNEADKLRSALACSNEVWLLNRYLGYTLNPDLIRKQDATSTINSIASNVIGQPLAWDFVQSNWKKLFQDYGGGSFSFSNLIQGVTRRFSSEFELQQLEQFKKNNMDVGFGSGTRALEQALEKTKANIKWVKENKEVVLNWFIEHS
Description: as §1, §2
aminopeptidase M; CTG, cathespin G; CTD, cathespin D; PPE, porcine
Enzyme: Purified aminopeptidase M from porcine kidney
Reaction Mixture: 50 mM Tricine buffer (pH 7.5), 500 mM NaCl, 10% DMSO, 2.0 mM Substrate.
as §3, §4

cathepsin C = target: T7, cathepsin C (Bos taurus, UniProt Q3ZCJ8); assay: Inhibition of cathepsin C (CTC); format: biochemical, bovine; details: cathepsin C, pH 5.4, 10 minute preincubation, 22° C.; read-out: IC50 CTC
T7 construct: from tissue; host or cells: bovine spleen
T7 sequence (Q3ZCJ8 231-394 limits assumed): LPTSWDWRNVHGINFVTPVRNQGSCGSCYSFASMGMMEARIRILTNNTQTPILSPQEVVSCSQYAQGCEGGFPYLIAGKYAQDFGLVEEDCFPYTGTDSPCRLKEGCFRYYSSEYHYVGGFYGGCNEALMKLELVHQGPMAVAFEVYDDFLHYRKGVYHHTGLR
T7 sequence (Q3ZCJ8 395-463 limits assumed): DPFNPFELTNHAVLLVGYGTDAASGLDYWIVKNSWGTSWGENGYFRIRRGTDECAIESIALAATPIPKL
T7 sequence (Q3ZCJ8 25-134 limits assumed): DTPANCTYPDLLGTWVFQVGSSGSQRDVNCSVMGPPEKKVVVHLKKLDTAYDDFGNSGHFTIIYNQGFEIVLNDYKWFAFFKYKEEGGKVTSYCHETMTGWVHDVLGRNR
Description: as §1, §2
Enzyme: Purified cathepsin C from bovine spleen
Substrate: Glycyl-L-phenylalanine-pNA
Reaction mixture: 50 mM Citrate buffer (pH 5.4), 5 mM B-Mercaptoethanol, 150 mM NaCl, 10% DMSO, 20 mM Substrate.
as §3, §4

plasmin = target: T8, plasmin (Homo sapiens, UniProt P00747); assay: Inhibition of plasmin (PTH); format: biochemical; details: pH 8.9, 10 minute preincubation, 22° C.
T8 construct: from tissue; host or cells: human plasma
T8 sequence (P00747 581-810 limits assumed): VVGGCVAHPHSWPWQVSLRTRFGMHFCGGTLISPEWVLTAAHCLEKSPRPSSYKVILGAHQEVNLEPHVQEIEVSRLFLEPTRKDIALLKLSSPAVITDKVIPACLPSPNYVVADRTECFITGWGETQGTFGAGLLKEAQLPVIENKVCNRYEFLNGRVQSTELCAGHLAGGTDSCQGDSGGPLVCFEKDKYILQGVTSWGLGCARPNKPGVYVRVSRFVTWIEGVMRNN
T8 sequence (P00747 97-580 partner limits assumed): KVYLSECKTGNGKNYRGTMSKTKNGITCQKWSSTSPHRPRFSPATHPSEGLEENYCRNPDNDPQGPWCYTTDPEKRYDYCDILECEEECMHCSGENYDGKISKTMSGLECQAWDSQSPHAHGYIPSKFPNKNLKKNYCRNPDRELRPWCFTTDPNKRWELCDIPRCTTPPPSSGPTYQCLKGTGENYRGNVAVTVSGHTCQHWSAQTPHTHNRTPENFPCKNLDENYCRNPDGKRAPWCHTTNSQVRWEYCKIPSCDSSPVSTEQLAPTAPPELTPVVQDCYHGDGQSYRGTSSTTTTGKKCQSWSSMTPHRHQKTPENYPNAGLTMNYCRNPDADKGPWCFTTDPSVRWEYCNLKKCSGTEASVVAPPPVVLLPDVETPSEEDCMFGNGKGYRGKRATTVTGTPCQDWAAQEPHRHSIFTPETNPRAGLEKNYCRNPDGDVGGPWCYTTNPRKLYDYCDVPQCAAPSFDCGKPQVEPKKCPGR
Description: as §1, §2
Enzyme: Purified plasmin from human plasma Substrate: Tosyl-glyclyl-L-prolyl-L-lysine-pNA acetate
Reaction mixture: 50 mM Tris-HCl buffer (pH 8.9), 500 mM NaCl, 5% DMSO, 0.5 mM Substrate.
as §3, §4

Compound: Cc1nnc(SCC2=C(C(=O)OC(c3ccccc3)c3ccccc3)N3C(=O)[C@H](Br)[C@H]3[S+]([O-])C23CC3(c2ccc(Cl)cc2)c2ccc(Cl)cc2)s1 (stereo partly drawn) [Benzhydryl-7α-bromo-2-spiro[2',2'-(4',4'-dichloro)diphenyl]-cyclopropyl-3-[(5-methyl-1,3,4-thiadiazol-2-yl)thiomethyl]-3-cephem-4-carboxylate-1-oxide]
- IC50 [1]: 0.0489 µM

Compound: CO[C@H]1C(=O)N2C(C(=O)N3CCCCC3)=C(C)C3(CC3(c3ccccc3)c3ccccc3)S(=O)(=O)[C@H]12 (stereo partly drawn) [Example 11, 7α-Methoxy-2-spiro (2',2'-diphenyl)cyclopropyl-3-methyl-3-cephem-4-piperidine carboxamide-1,1-dioxide]
- IC50 (trypsin): > 10 µM
- IC50 (cathepsin G): > 10 µM
- IC50 (cathepsin D): 0.0316 µM
- IC50 (thrombin): > 39.9 µM
- IC50 [1]: 0.0107 µM
- IC50 (aminopeptidase M): > 10 µM
- IC50 (cathepsin C): > 10 µM
- IC50 (plasmin): > 10 µM

Compound: CC1=C(C(=O)OC(c2ccccc2)c2ccccc2)N2C(=O)[C@H](Br)[C@H]2S(=O)(=O)C12CC2c1ccccc1 (stereo partly drawn) [Example 13 (3), Benzhydryl 7α-bromo-2-spiro(2'-phenyl)cyclopropyl-3-methyl-3-cephem-4-carboxylate-1,1-dioxide]
- IC50 [1]: 0.00657 µM

Compound: CC1=C(C(=O)OC(c2ccccc2)c2ccccc2)N2C(=O)CC2S(=O)(=O)C12CC2(c1ccccc1)c1ccccc1 (stereo not shown) [Example 5, Benzhydryl 7,7-dihydro-2-spiro(2',2'-diphenyl)cyclopropyl-3-methyl-3-cephem-4-carboxylate-1,1-dioxide]
- IC50 [1]: 0.149 µM

Compound: COc1ccc(COC(=O)C2=C(CCl)C3(CC3(c3ccccc3)c3ccccc3)S(=O)(=O)[C@@H]3[C@@H](Br)C(=O)N23)cc1 (stereo partly drawn) [p-Methoxybenzyl 7α-bromo-2-spiro(2',2'-diphenyl) cyclopropyl-3-chloromethyl-3-cephem-4-carboxylate-1,1-dioxide]
- IC50 [1]: 0.00404 µM

Compound: CC(=O)OCC1=C(C(=O)OC(C)(C)C)N2C(=O)[C@H](Cl)[C@H]2S(=O)(=O)C12CC2(c1ccccc1)c1ccccc1 (stereo partly drawn) [Example 4, t-Butyl 7α-chloro-2-spiro(2',2'-diphenyl)cyclopropyl-3-acetoxymethyl-3-cephem-4-carboxylate-1,1-dioxide]
- IC50 [1]: 0.0914 µM
